Test results: article PMC7872314, “Modeling Bioavailable Concentrations in Zebrafish Cell Lines and Embryos Increases the Correlation of Toxicity Potencies across Test Systems” (Environmental Science & Technology, 2020)
Like-named read-outs stand apart in the source and are kept apart here.

Experiments:
[1] = test system: ZFL (hepatocytes) cell line; experiment: cells; format: cell-based, zebrafish (Danio rerio); details: Danio rerio, Hepatocyte
[2] = ref Comptox, PubChem or DrugBank; cited from earlier work
[3] = test system: ZF4 (fibroblasts) cell line; experiment: BCA assay (MTS/BCA multiplex), protein amount; format: cell-based, zebrafish (Danio rerio); details: Danio rerio, Fibroblast
[4] = test system: ZF4 (fibroblasts) cell line; experiment: Neutral red, absorbance (NRa), AB/CFDA/NR multiplex, lysosome stability; format: cell-based, zebrafish (Danio rerio); details: Danio rerio, Fibroblast
[5] = test system: ZF4 (fibroblasts) cell line; experiment: alamarBlue (AB) endpoint of AB/CFDA/NR multiplex, cellular respiration; format: cell-based, zebrafish (Danio rerio); details: Danio rerio, Fibroblast
[6] = test system: ZF4 (fibroblasts) cell line; experiment: CFDA endpoint of AB/CFDA/NR multiplex, membrane stability; format: cell-based, zebrafish (Danio rerio); details: Danio rerio, Fibroblast
[7] = test system: ZFL (hepatocytes) cell line; experiment: cells; format: cell-based, zebrafish (Danio rerio); details: Danio rerio, Hepatocyte; remark: listed apart in the source
[8] = test system: ZF4 (fibroblasts) cell line; experiment: ATP assay (ATP/LDH multiplex), ATP metabolism; format: cell-based, zebrafish (Danio rerio); details: Danio rerio, Fibroblast
[9] = test system: ZFL (hepatocytes) cell line; experiment: cells; format: cell-based, zebrafish (Danio rerio); details: Danio rerio, Hepatocyte; remark: listed apart in the source
[10] = test system: ZFL (hepatocytes) cell line; experiment: cells; format: cell-based, zebrafish (Danio rerio); details: Danio rerio, Hepatocyte; remark: listed apart in the source
[11] = test system: ZF4 (fibroblasts) cell line; experiment: MTS assay (MTS/BCA multiplex), NAD(P)H metabolism; format: cell-based, zebrafish (Danio rerio); details: Danio rerio, Fibroblast
ZF4 and ZFL cell lines = experiment: Cytotoxicity assays, all endpoints, both cell lines (mean/range); format: cell-based, zebrafish (Danio rerio); details: 48 h, mean of all cytotoxicity endpoints (without LDH) in ZF4 and ZFL
[12] = test system: ZFL (hepatocytes) cell line; experiment: cells; format: cell-based, zebrafish (Danio rerio); details: Danio rerio, Hepatocyte; remark: listed apart in the source
[13] = test system: diverse mammalian cell assay results; set-up: method as in https://comptox.epa.gov/dashboard/; details: COMPTOX; ref https://comptox.epa.gov/dashboard/; read-out: median AC50; cited from earlier work
[14] = test system: ZFL (hepatocytes) cell line; experiment: cells; format: cell-based, zebrafish (Danio rerio); details: Danio rerio, Hepatocyte; remark: listed apart in the source
zebrafish embryos [15] = test system: zebrafish embryos; set-up: method as in earlier work; details: nominal, cited from earlier work
zebrafish embryos [16] = experiment: animal or person; format: in vivo, zebrafish (Danio rerio); details: for EC50: Danio rerio
[17] = test system: ZFL (hepatocytes) cell line; experiment: cells; format: cell-based, zebrafish (Danio rerio); details: Danio rerio, Hepatocyte; remark: listed apart in the source
[18] = test system: ZF4 (fibroblasts) cell line; experiment: Neutral red, fluorescence (NRf), AB/CFDA/NR multiplex, lysosome stability; format: cell-based, zebrafish (Danio rerio); details: Danio rerio, Fibroblast
[19] = test system: zebrafish cell lines vs zebrafish embryo; experiment: Potency ratios IC50;x/EC50;x (cytotoxicity assays vs mFET); set-up: species or system zebrafish (Danio rerio)

`COC(=O)Nc1nc2ccc([S+]([O-])c3ccccc3)cc2[nH]1` (stereo not drawn) [Oxfendazole, oxfendazole] showed an IC50 ([1]; ATP - ZFL, log10 of IC50, read-out: LogIC50 (converted)) of 106 µM, an IC50 ([1]; ATP - ZFL, read-out: IC50) of 106 µM and an IC50 ([1]; ZFL, 48 h exposure, nominal, log10, read-out: logIC50 (log10 IC50;nom) ATP (converted)) of 105 µM. For the same compound, the IC50 ([1]; ZFL, 48 h exposure, nominal, read-out: IC50;nom ATP) was 106 µM, the BCF [2] was 161 and the Physiological charge [2] was 0. For the same compound, the “Water Solubility” value [2] was “insoluble”, the logKoa [2] was 9.57 and the logKow [2] was 1.45. The “pKa (Strongest Acidic)” value [2] was 9.26, the “pKa (Strongest Basic)” value [2] was 3.57 and the “w_solubility (water solubility)” value [2] was 864 µM. The IC50 ([3]; BCA - ZF4, log10 of IC50, read-out: LogIC50 (converted)) was 6.43 µM, the IC50 ([3]; BCA - ZF4, read-out: IC50) was 6.43 µM and the IC50 ([3]; ZF4, 48 h exposure, nominal, log10, read-out: logIC50 (log10 IC50;nom) BCA (converted)) was 6.46 µM. The IC50 ([3]; ZF4, 48 h exposure, nominal, read-out: IC50;nom BCA) was 6.43 µM, the IC50 ([4]; NR-abs - ZF4, log10 of IC50, read-out: LogIC50 (converted)) was 58.6 µM and the IC50 ([4]; NR-abs - ZF4, read-out: IC50) was 58.6 µM. It also gave an IC50 ([4]; ZF4, 48 h exposure, nominal, log10, read-out: logIC50 (log10 IC50;nom) NRa (converted)) of 58.9 µM, an IC50 ([4]; ZF4, 48 h exposure, nominal, read-out: IC50;nom NRa) of 58.6 µM and an IC50 ([4]; ZF4 cell line, NRa endpoint, nominal, read-out: IC50;nom) of 18.5 µg/mL. For the same compound, the IC50 ([5]; AB - ZF4, log10 of IC50, read-out: LogIC50 (converted)) was 124 µM, the IC50 ([5]; AB - ZF4, read-out: IC50) was 124 µM and the IC50 ([5]; ZF4, 48 h exposure, nominal, log10, read-out: logIC50 (log10 IC50;nom) AB (converted)) was 123 µM. For the same compound, the IC50 ([5]; ZF4, 48 h exposure, nominal, read-out: IC50;nom AB) was 124 µM, the IC50 ([6]; CFDA - ZF4, log10 of IC50, read-out: LogIC50 (converted)) was 153 µM and the IC50 ([6]; CFDA - ZF4, read-out: IC50) was 153 µM. It also gave an IC50 ([6]; ZF4, 48 h exposure, nominal, log10, read-out: logIC50 (log10 IC50;nom) CFDA (converted)) of 151 µM, an IC50 ([6]; ZF4, 48 h exposure, nominal, read-out: IC50;nom CFDA) of 153 µM and an IC50 ([7]; MTS - ZFL, log10 of IC50, read-out: LogIC50 (converted)) of 9.73 µM. For the same compound, the IC50 ([7]; MTS - ZFL, read-out: IC50) was 9.73 µM, the IC50 ([7]; ZFL, 48 h exposure, nominal, log10, read-out: logIC50 (log10 IC50;nom) MTS (converted)) was 9.77 µM and the IC50 ([7]; ZFL, 48 h exposure, nominal, read-out: IC50;nom MTS) was 9.73 µM. It also gave an IC50 ([8]; ATP - ZF4, log10 of IC50, read-out: LogIC50 (converted)) of 144 µM, an IC50 ([8]; ATP - ZF4, read-out: IC50) of 144 µM and an IC50 ([8]; ZF4, 48 h exposure, nominal, log10, read-out: logIC50 (log10 IC50;nom) ATP (converted)) of 145 µM. It also gave an IC50 ([8]; ZF4, 48 h exposure, nominal, read-out: IC50;nom ATP) of 144 µM, an IC50 ([9]; NR-abs - ZFL, log10 of IC50, read-out: LogIC50 (converted)) of 8.93 µM and an IC50 ([9]; NR-abs - ZFL, read-out: IC50) of 8.93 µM. It also gave an IC50 ([9]; ZFL, 48 h exposure, nominal, log10, read-out: logIC50 (log10 IC50;nom) NRa (converted)) of 8.91 µM, an IC50 ([9]; ZFL, 48 h exposure, nominal, read-out: IC50;nom NRa) of 8.93 µM and an IC50 ([10]; CFDA - ZFL, log10 of IC50, read-out: LogIC50 (converted)) of 320 µM. The IC50 ([10]; CFDA - ZFL, read-out: IC50) was 320 µM, the IC50 ([10]; ZFL, 48 h exposure, nominal, log10, read-out: logIC50 (log10 IC50;nom) CFDA (converted)) was 324 µM and the IC50 ([10]; ZFL, 48 h exposure, nominal, read-out: IC50;nom CFDA) was 320 µM. For the same compound, the IC50 ([11]; MTS - ZF4, log10 of IC50, read-out: LogIC50 (converted)) was 20.4 µM, the IC50 ([11]; MTS - ZF4, read-out: IC50) was 20.4 µM and the IC50 ([11]; ZF4, 48 h exposure, nominal, log10, read-out: logIC50 (log10 IC50;nom) MTS (converted)) was 20.4 µM. For the same compound, the IC50 ([11]; ZF4, 48 h exposure, nominal, read-out: IC50;nom MTS) was 20.4 µM, the IC50 (ZF4 and ZFL cell lines; Danio rerio, log10, read-out: Mean log IC50nom (converted)) was 23.4 µM and the “Mean log IC50nom” value (ZF4 and ZFL cell lines; log10, listed as Ox) was -4.631 M. The IC50 ([12]; BCA - ZFL, log10 of IC50, read-out: LogIC50 (converted)) was 0.058 µM, the IC50 ([12]; BCA - ZFL, read-out: IC50) was 0.058 µM and the IC50 ([12]; ZFL, 48 h exposure, nominal, log10, read-out: logIC50 (log10 IC50;nom) BCA (converted)) was 0.0575 µM. For the same compound, the IC50 ([12]; ZFL, 48 h exposure, nominal, read-out: IC50;nom BCA) was 0.058 µM, the AC50 [13] was 0.34 µM and the IC50 ([14]; NR-fluo - ZFL, log10 of IC50, read-out: LogIC50 (converted)) was 7.37 µM. For the same compound, the IC50 ([14]; NR-fluo - ZFL, read-out: IC50) was 7.37 µM, the IC50 ([14]; ZFL, 48 h exposure, nominal, log10, read-out: logIC50 (log10 IC50;nom) NRf (converted)) was 7.41 µM and the IC50 ([14]; ZFL, 48 h exposure, nominal, read-out: IC50;nom NRf) was 7.37 µM. For the same compound, the EC50 (zebrafish embryos [15]; 144 hpf, converted, listed as Ox) was 21.6 µM, the “logEC50 144 hpf” value (zebrafish embryos [15]; log10) was -4.666 M and the “difference in toxicity (EC50;nom) between 48 hpf and 144 hpf” value (zebrafish embryos [16]; 48 hpf time point less sensitive than 144 hpf) was “approximately the same”. For the same compound, the “log EC50;nom (mFET)” value (zebrafish embryos [16]; 48 hpf, nominal, log10, listed as Ox) was -4.607 M, the EC50 (zebrafish embryos [16]; 48 hpf, nominal, log10, read-out: log EC50;nom (mFET) (converted)) was 24.5 µM and the EC50 (zebrafish embryos [16]; 48 hpf, nominal, read-out: EC50;nom (embryo)) was 7.79 µg/mL. It also gave an EC50 (zebrafish embryos [16]; read-out: EC50 48hpf) of 24.7 µM, an EC50 (zebrafish embryos [16]; read-out: EC50;nom (mFET)) of 24.7 µM and an IC50 ([17]; AB - ZFL, log10 of IC50, read-out: LogIC50 (converted)) of 10.4 µM. For the same compound, the IC50 ([17]; AB - ZFL, read-out: IC50) was 10.4 µM, the IC50 ([17]; ZFL, 48 h exposure, nominal, log10, read-out: logIC50 (log10 IC50;nom) AB (converted)) was 10.5 µM and the IC50 ([17]; ZFL, 48 h exposure, nominal, read-out: IC50;nom AB) was 10.4 µM. It also gave an IC50 ([18]; NR-fluo - ZF4, log10 of IC50, read-out: LogIC50 (converted)) of 54.3 µM, an IC50 ([18]; NR-fluo - ZF4, read-out: IC50) of 54.3 µM and an IC50 ([18]; ZF4, 48 h exposure, nominal, log10, read-out: logIC50 (log10 IC50;nom) NRf (converted)) of 53.7 µM. For the same compound, the IC50 ([18]; ZF4, 48 h exposure, nominal, read-out: IC50;nom NRf) was 54.3 µM, the “potency ratio IC50;nom/EC50;nom (median)” value ([19]; median over cytotoxicity endpoints, nominal, 48 h cells / 48 hpf mFET) was 1.51 and the “difference in sensitivity between embryo (EC50;nom) and cells (IC50;nom)” value ([19]; nominal concentrations, higher potency in the mFET) was “equal nominal median concentrations between test systems”.
